Results published in patent US10731222B2 (RNA Diagnostics Inc., priority 2013, dated 2020).
“Also recorded” adds a separate entry of the source.

Assays:
A2780 cells = experiment: Cell counts and Recovery Assay of A2780 cells after docetaxel
[1] = tested on: Jurkat leukemia cell line; experiment: Docetaxel-induced RNA disruption, Jurkat; type: cell-based
[2] = tested on: A2780 ovarian tumour cell line; experiment: Apoptosis markers in drug-treated cells (Annexin V-FITC, DNA content, PARP cleavage, caspase activity); type: cell-based, human
Procedure: Various cell lines were treated with anti-cancer agents and the effects of these treatments on the cellular RNA banding pattern, Annexin V-FITC binding to cells, cellular DNA content, poly ADP ribose polymerase (PARP) cleavage, and cell proliferation in the absence of drug post-treatment were assessed.

[3] = tested on: A2780 ovarian cancer cells; experiment: RNA disruption in drug-treated A2780 cells (Agilent Bioanalyzer electropherogram, RDI); type: cell-based, human
Procedure: RNA was isolated from ovarian cancer cell line A2780 cells which had been treated with 10 μM docetaxel in 50% media or 20 μM epirubicin, each in 50% media. Cells were treated with the chemotherapeutic for 24 hours at 37° C. Isolated RNA was separated by microcapillary electrophoresis using the Agilent 2100 Bioanalyzer.
Cells were plated and treated with docetaxel concentrations ranging from 0.001-40 μM for 24 to 72 hours to assess the effect on cell number, RNA content, and integrity (measured using a Bioanalyzer 2100 from Agilent Technologies, Inc.).
A2780 cells treated for up to 72 hours with docetaxel at 0.005 uM and 0.2 uM, were analyzed for the amount of RNA per cell. RNA was isolated and electophoretically separated using an Agilent Bioanalyzer.
RNA was isolated and electrophoretically separated on an Agilent Bioanalyzer. As shown in FIG. 24D bands appeared just below the 28S (e.g. intermediate) and 18S bands (e.g. low banding region) at 0.005 uM and peaked at 0.2 uM.
A time course experiment was conducted in A2780 cells. Cells were treated for up to 72 hours with docetaxel at 0.005 uM and 0.2 uM. RNA was isolated and run on an Agilent Bioanalyzer.
The effect of a caspase inhibitor on RNA integrity changes was next assessed. Cells were treated with or without docetaxel at a concentration of 0.2 uM in the presence or absence of the caspase inhibitor Q-DEVD-OPH (Biovision Laboratories) at a concentration of 10 uM.

[4] = tested on: CaOV3 ovarian tumour cell line; experiment: Docetaxel-induced RNA disruption, CaOV3; type: cell-based
[5] = tested on: docetaxel-resistant A2780DXL cells; experiment: Clonogenic assay, docetaxel-resistant cells; type: cell-based; details: 50% of colony formation suppressed
From the text: (§1) A docetaxel A2780 resistant cell line was made as described in Li et al., Int. J. Mol. Med 2004 14(20): 257-264.
(§2) RDA like clonogenic assays can be used to identify drugs that are cytotoxic (FIG. 24C iv). […] The cell lines have widely differing sensitivity to docetaxel in a clonogenic assay, with IC50 values differing by over three orders of magnitude.

[6] = tested on: docetaxel-resistant A2780DXL cells; experiment: RNA disruption in docetaxel-resistant cells; type: cell-based; details: docetaxel treatment
Procedure: as §1
A time course experiment was conducted. Sensitive parental and docetaxel resistant A2780 cells were treated with docetaxel for 24 hours. RNA was isolated and run on an Agilent Bioanalyzer.
The a\Ability of RDA to detect potentiators of docetaxel (Dxl) sensitivity. […] Thus, RDA may be used to screen for potentiators of chemotherapy drug cytotoxicity.

parental A2780 cells = experiment: Clonogenic assay, drug-sensitive parental cells; type: cell-based; details: Homo sapiens, 50% of colony formation suppressed
From the text: as §2

CC(=O)O[C@@]12CO[C@@H]1C[C@H](O)[C@@]1(C)C(=O)[C@H](O)C3=C(C)[C@@H](OC(=O)[C@H](O)[C@@H](NC(=O)OC(C)(C)C)c4ccccc4)C[C@@](O)([C@@H](OC(=O)c4ccccc4)[C@H]21)C3(C)C [docetaxel]
recovery in drug-free media (A2780 cells; 5 nM): permitted cell recovery, but only when the incubation period was 48 hours or less | recovery in drug-free media (A2780 cells; 0.2 uM for up to 72 hours, washed and replated): No resumption of cell proliferation | concentrations at which cell numbers remained constant (A2780 cells; up to 72 hours): greater than or equal to 0.005 uM | docetaxel-induced RNA disruption [1]: RNA disruption was also observed | Annexin V-FITC binding [2]: enhance Annexin V-FITC binding to cells | DNA laddering [2]: no DNA laddering was observed | PARP cleavage [2]: induce the cleavage of poly ADP ribose polymerase (PARP) | cellular DNA content [2]: generate cells containing a sub-G1 level of DNA content | cellular caspase activity [2]: activated cellular caspase activity | membrane integrity (propidium iodide staining) ([2]; after drug-treatment): lack of propiclium iodide staining | amount of RNA per cell ([3]; 0.005 uM and 0.2 uM, up to 72 hours): increase in a time-dependent and dose-dependent manner | electropherogram pattern ([3]; 10 μM in 50% media, 24 hours, 37° C.): an intermediate peak and a peak adjacent to the 18S peak | RDI ([3]; 0.2 micromolar, 72 hrs, 0.23 prior to drug): 3.09 | RNA concentration ([3]; 0.2 micromolar, 72 hrs, 1220 prior to drug): about 359 ng/microliter | concentration at which the novel banding peaked ([3]; 24 hours): 0.2 µM | ratio of Low C Area/(28S+18S) ([3]; after 72 hr, little change at 8, 24 or 48 hr): dramatic increase | RIN ([3]; concentrations ≥0.005 uM): did not change significantly | concentration giving reductions in cell number and RIN and increased RDI ([3]; dose and time-dependent): ≥ 0.1 µM | response of cells in culture to the agent ([3]; dose- and time-dependent): RNA disruption | docetaxel-induced RNA disruption [4]: RNA disruption was also observed | IC50 [5]: ~0.65 µM | RNA disruption / banding below 28S and 18S [6]: no banding is evident; also recorded: did not result in RNA disruption; also recorded: do not show docetaxel-induced RNA disruption | IC50 (parental A2780 cells): ~0.0011 µM
